Values of other authors, collected in patent US20100273711A1, “INDIVIDUALIZED CANCER TREATMENTS” (priority 2007, published 2010).

Tests used:
OAW42 = conditions: cell line OAW42, ovarian ca; cited from earlier work
C8161 = conditions: cell line C8161, melanoma; cited from earlier work
BT20 = conditions: cell line BT20, breast ca; cited from earlier work
ME43 = conditions: cell line ME43, melanoma; cited from earlier work
SKBR3 = conditions: cell line SKBR3, breast ca; cited from earlier work
SNU182 = conditions: cell line SNU182, HCC; cited from earlier work
SNU475 = conditions: cell line SNU475, HCC; cited from earlier work
SKMel19 = conditions: cell line SKMel19, melanoma; cited from earlier work
MeWo = conditions: cell line MeWo, melanoma; cited from earlier work
ES-2 = conditions: cell line ES-2, ovarian ca; cited from earlier work
Du145 = conditions: cell line Du145, prostate ca; cited from earlier work
HT-29 = conditions: cell line HT-29, colon ca; cited from earlier work
257p = conditions: cell line 257p, gastric ca; cited from earlier work
R103 = conditions: cell line R103, breast ca; cited from earlier work
R193 = conditions: cell line R193, breast ca; cited from earlier work
OVCAR3 = conditions: cell line OVCAR3, ovarian ca; cited from earlier work
CX-2 = conditions: cell line CX-2, colon ca; cited from earlier work
SNU449 = conditions: cell line SNU449, HCC; cited from earlier work
SNU423 = conditions: cell line SNU423, HCC; cited from earlier work
Hep3B = conditions: cell line Hep3B, HCC; cited from earlier work
DV-90 = conditions: cell line DV-90, lung ca; cited from earlier work
HRT-18 = conditions: cell line HRT-18, colon ca; cited from earlier work
A375 = conditions: cell line A375, melanoma; cited from earlier work
SKOV-3 = conditions: cell line SKOV-3, ovarian ca; cited from earlier work
181/85p = conditions: cell line 181/85p, pancreas ca; cited from earlier work
SW13 = conditions: cell line SW13, adrenal cortex carcinoma; cited from earlier work
FU-OV-1 = conditions: cell line FU-OV-1, ovarian ca; cited from earlier work

For `N.N.[Cl][Pt][Cl]` [Cisplatin, cisplatin], the “Cisplatin Resistant (Res) or Sensitive (Sen)” value (shortened to “Cisplatin Resistant”) (OAW42) is listed as “Sen”, the “Cisplatin Resistant” value (C8161) is listed as “Res” and the “Cisplatin Resistant” value (BT20) is listed as “Sen”. For the same compound, the “Cisplatin Resistant” value (ME43) was “Res”, the “Cisplatin Resistant” value (SKBR3) was “Res” and the “Cisplatin Resistant” value (SNU182) was “Res”. For the same compound, the “Cisplatin Resistant” value (SNU475) was “Res”, the “Cisplatin Resistant” value (SKMel19) was “Res” and the “Cisplatin Resistant” value (MeWo) was “Res”. For the same compound, the “Cisplatin Resistant” value (ES-2) was “Res”, the “Cisplatin Resistant” value (Du145) was “Res” and the “Cisplatin Resistant” value (HT-29) was “Res”. For the same compound, the “Cisplatin Resistant” value (257p) was “Res”, the “Cisplatin Resistant” value (R103) was “Sen” and the “Cisplatin Resistant” value (R193) was “Sen”. The “Cisplatin Resistant” value (OVCAR3) was “Sen”, the “Cisplatin Resistant” value (CX-2) was “Res” and the “Cisplatin Resistant” value (SNU449) was “Res”. For the same compound, the “Cisplatin Resistant” value (SNU423) was “Res”, the “Cisplatin Resistant” value (Hep3B) was “Res” and the “Cisplatin Resistant” value (DV-90) was “Sen”. The “Cisplatin Resistant” value (HRT-18) was “Res”, the “Cisplatin Resistant” value (A375) was “Res” and the “Cisplatin Resistant” value (SKOV-3) was “Res”. The “Cisplatin Resistant” value (181/85p) was “Res”, the “Cisplatin Resistant” value (SW13) was “Res” and the “Cisplatin Resistant” value (FU-OV-1) was “Sen”.
